Measurements taken from patent publication US7674801B2 (AstraZeneca AB, priority 2006, dated 2010).

Biological target: S. aureus (SAU) GyrB ATPase (Staphylococcus aureus, UniProt P0A0K8)
Assay: S. aureus GyrB ATPase inhibition, ammonium molybdate/malachite green phosphate detection assay
Format: biochemical
Settings: for inhibition at 12.5 µM: read-out: S. aureus (SAU) GyrB ATPase % Inhibition, compound concentration 12.5 μM
In short: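 Phosphate from ATP hydrolysis (500 μM ATP) read as malachite green/molybdate absorbance at 650 nm after acid quench. Reaction: 1.25 nM S. aureus GyrB plus 1.25 nM E. coli GyrA, sheared DNA, Hepes pH 7.5 with Mg2+. IC50 fitted over 10 concentrations, normalised to DMSO (2%) and novobiocin (2 μM) controls.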

Chain of S. aureus (SAU) GyrB ATPase (P0A0K8 whole entry): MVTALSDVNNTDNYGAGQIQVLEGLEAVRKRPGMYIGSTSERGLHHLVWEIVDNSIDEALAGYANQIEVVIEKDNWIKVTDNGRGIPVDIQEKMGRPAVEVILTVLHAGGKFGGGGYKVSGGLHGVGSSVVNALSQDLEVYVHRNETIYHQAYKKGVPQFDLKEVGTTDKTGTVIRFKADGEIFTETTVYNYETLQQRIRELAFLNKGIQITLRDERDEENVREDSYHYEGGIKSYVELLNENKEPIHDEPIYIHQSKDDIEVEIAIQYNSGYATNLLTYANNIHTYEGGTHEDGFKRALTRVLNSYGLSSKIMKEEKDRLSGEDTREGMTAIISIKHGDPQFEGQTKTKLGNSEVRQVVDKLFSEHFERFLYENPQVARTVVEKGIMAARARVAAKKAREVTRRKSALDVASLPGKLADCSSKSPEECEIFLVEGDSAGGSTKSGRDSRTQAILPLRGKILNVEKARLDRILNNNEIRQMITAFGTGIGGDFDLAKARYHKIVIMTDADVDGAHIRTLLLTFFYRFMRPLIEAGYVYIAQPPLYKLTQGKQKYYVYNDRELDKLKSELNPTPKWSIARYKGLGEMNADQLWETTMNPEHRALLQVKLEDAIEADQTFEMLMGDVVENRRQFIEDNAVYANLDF
Chain of S. aureus (SAU) GyrB ATPase (P0AES4 whole entry, further chain): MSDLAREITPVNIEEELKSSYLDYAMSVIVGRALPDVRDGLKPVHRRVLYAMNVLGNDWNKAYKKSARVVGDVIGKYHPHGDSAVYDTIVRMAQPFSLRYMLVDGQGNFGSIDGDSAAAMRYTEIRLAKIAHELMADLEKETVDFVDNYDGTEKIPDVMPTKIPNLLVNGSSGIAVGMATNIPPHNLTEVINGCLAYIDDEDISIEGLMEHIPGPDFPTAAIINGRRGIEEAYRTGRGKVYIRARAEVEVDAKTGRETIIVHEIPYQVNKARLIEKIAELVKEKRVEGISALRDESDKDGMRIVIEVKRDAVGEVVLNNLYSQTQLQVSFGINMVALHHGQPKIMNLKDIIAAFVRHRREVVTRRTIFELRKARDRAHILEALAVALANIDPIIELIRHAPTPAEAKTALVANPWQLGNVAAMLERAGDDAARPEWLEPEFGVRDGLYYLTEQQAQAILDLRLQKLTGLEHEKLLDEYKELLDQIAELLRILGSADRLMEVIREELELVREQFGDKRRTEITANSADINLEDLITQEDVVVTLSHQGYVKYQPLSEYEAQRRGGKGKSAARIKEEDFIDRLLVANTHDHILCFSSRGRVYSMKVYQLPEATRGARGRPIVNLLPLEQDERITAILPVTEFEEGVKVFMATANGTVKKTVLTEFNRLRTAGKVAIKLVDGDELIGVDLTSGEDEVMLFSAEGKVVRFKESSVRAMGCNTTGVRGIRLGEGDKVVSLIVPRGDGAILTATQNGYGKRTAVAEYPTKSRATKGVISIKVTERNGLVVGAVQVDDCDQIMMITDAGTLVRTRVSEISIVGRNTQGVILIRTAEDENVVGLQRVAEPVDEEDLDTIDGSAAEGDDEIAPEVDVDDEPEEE

SMILES	inhibition at 12.5 µM [%]	S. aureus (SAU) GyrB ATPase % Inhibition (compound concentration 12.5 μM, 12.5 µM) [%]
CCNC(=O)Nc1ccc(-c2nc(C(=O)N[C@@H](C)COC)c(C(=O)N(C)C)s2)cn1 [Example 118, 2-(6-{[(Ethylamino)carbonyl]amino}pyridin-3-yl)-N^4-[(1S)-2-methoxy-1-methylethyl]-N^5,N^5-dimethyl-1,3-thiazole-4,5-dicarboxamide]	102	–
CCNC(=O)Nc1cc(-c2nc(CC)cs2)c(-c2cncc(C(N)=O)c2)cn1 [Example 119, 6′-{[(Ethylamino)carbonyl]amino}-4′-(4-ethyl-1,3-thiazol-2-yl)-3,3′-bipyridine-5-carboxamide]	103	–
CCNC(=O)Nc1cc(-c2nc(C(F)(F)F)cs2)c(-c2cncc(C(N)=O)c2)cn1 [Example 121, 6′-{[(Ethylamino)carbonyl]amino}-4′-[4-(trifluoromethyl)-1,3-thiazol-2-yl]-3,3′-bipyridine-5-carboxamide]	81.8	–
CCNC(=O)Nc1cc(-c2nc(C(F)(F)F)cs2)c(-c2cncc(C(=O)NC)c2)cn1 [Example 122, 6′-{[(Ethylamino)carbonyl]amino}-N-methyl-4′-[4-(trifluoromethyl)-1,3-thiazol-2-yl]-3,3′-bipyridine-5-carboxamide]	85.8	–
CCNC(=O)Nc1cc(-c2nc(C(F)(F)F)cs2)c(-c2cncc(C(=O)NC(C)(C)C)c2)cn1 [Example 123, N-(tert-Butyl)-6′-{[(ethylamino)carbonyl]amino}-4′-[4-(trifluoromethyl)-1,3-thiazol-2-yl]-3,3′-bipyridine-5-carboxamide]	96.2	–
CCNC(=O)Nc1cc(-c2nc(C(F)(F)F)cs2)c(-c2cncc(C(=O)N[C@@H](C)COC)c2)cn1 [Example 124, 6′-{[(Ethylamino)carbonyl]amino}-N-[(1S)-2-methoxy-1-methylethyl]-4′-[4-(trifluoromethyl)-1,3-thiazol-2-yl]-3,3′-bipyridine-5-carboxamide]	95.1	–
CCNC(=O)Nc1cc(-c2nc(C(F)(F)F)cs2)c(-c2cncc(C(=O)NC3CCCC3)c2)cn1 [Example 125, N-Cyclopentyl-6′-{[(ethylamino)carbonyl]amino}-4′-[4-(trifluoromethyl)-1,3-thiazol-2-yl]-3,3′-bipyridine-5-carboxamide]	107	–
CCNC(=O)Nc1cc(-c2nc(C(F)(F)F)cs2)c(-c2cncc(C(=O)NC3CC3)c2)cn1 [Example 126, N-Cyclopropyl-6′-{[(ethylamino)carbonyl]amino}-4′-[4-(trifluoromethyl)-1,3-thiazol-2-yl]-3,3′-bipyridine-5-carboxamide]	96.2	–
CCNC(=O)Nc1cc(-c2nc(C(F)(F)F)cs2)c(-c2ncc(C(=O)NC)s2)cn1 [Example 127, 2-{6-{[(Ethylamino)carbonyl]amino}-4-[4-(trifluoromethyl)-1,3-thiazol-2-yl]pyridin-3-yl}-N-methyl-1,3-thiazole-5-carboxamide]	97	–
CCNC(=O)Nc1cc(-c2ccc(F)nc2)c(-c2cncc(C(N)=O)c2)cn1 [Example 128, 6′-{[(Ethylamino)carbonyl]amino}-6″-fluoro-3,3′:4′,3″-terpyridine-5-carboxamide]	91.5	–
CNC(=O)c1cncc(-c2cnc(NC(=O)NC(C)C)cc2-c2nc(C(F)(F)F)cs2)c1 [Example 129, 6′-{[(Isopropylamino)carbonyl]amino}-N-methyl-4′-[4-(trifluoromethyl)-1,3-thiazol-2-yl]-3,3′-bipyridine-5-carboxamide]	100	–
CCC(C)NC(=O)Nc1cc(-c2nc(C(F)(F)F)cs2)c(-c2cncc(C(=O)NC)c2)cn1 (stereo not drawn) [Example 130, 6′-{[(Sec-butylamino)carbonyl]amino}-N-methyl-4′-[4-(trifluoromethyl)-1,3-thiazol-2-yl]-3,3′-bipyridine-5-carboxamide]	98.7	–
CCNC(=O)Nc1nc(-c2cccc(C(=O)OC)c2)cs1 [Example 134, methyl 3-(2-{[(ethylamino)carbonyl]amino}-1,3-thiazol-4-yl)benzoate]	7.09	–
CCNC(=O)Nc1ncc(-c2nc3cccc(C(=O)OCC)c3s2)cn1 [Example 135, ethyl 2-(2-{[(ethylamino)carbonyl]amino}pyrimidin-5-yl)-1,3-benzothiazole-7-carboxylate]	0.52	–
CCNC(=O)Nc1ccc(-c2cccc3nc(C(=O)OCC)cn23)cn1 [Example 136, ethyl 5-(6-{[(ethylamino)carbonyl]amino}pyridin-3-yl)imidazo[1,2-a]pyridine-2-carboxylate]	61	–
CCNC(=O)Nc1cc(-c2cccc(C(=O)OCC)c2)ccn1 [Example 137, ethyl 3-(2-{[(ethylamino)carbonyl]amino}pyridin-4-yl)benzoate]	86.9	–
CCNC(=O)Nc1cc(-c2ccc(C(=O)OCC)cc2)ccn1 [Example 138, ethyl 4-(2-{[(ethylamino)carbonyl]amino}pyridin-4-yl)benzoate]	94.8	–
CCNC(=O)Nc1ccc(-c2ccc3nc(C)c(C(=O)OCC)n3c2)cn1 [Example 139, ethyl 6-(6-{[(ethylamino)carbonyl]amino}pyridin-3-yl)-2-methylimidazo[1,2-a]pyridine-3-carboxylate]	96.7	–

SMILES	inhibition at 12.5 µM [%]	S. aureus (SAU) GyrB ATPase % Inhibition (compound concentration 12.5 μM, 12.5 µM) [%]
CCNC(=O)Nc1ccc(-c2nc(C(=O)N(C)C)c(C(=O)OCC)s2)cn1 [Example 140, ethyl 4-[(dimethylamino)carbonyl]-2-(6-{[(ethylamino)carbonyl]amino}pyridin-3-yl)-1,3-thiazole-5-carboxylate]	76.6	–
CCNC(=O)Nc1cc(-c2nc(C(C)(C)C)cs2)c(-c2cncc(C(=O)OCC)c2)cn1 [Example 141, ethyl 4′-(4-tert-butyl-1,3-thiazol-2-yl)-6′-{[(ethylamino)carbonyl]amino}-3,3′-bipyridine-5-carboxylate]	99.2	–
CCNC(=O)Nc1nc(-c2cccc(C(=O)O)c2)cs1 [Example 142, 3-(2-{[(ethylamino)carbonyl]amino}-1,3-thiazol-4-yl)benzoic acid]	0.68	–
CCNC(=O)Nc1cc(-c2cccc(C(=O)O)c2)ccn1 [Example 143, 3-(2-{[(ethylamino)carbonyl]amino}pyridin-4-yl)benzoic acid]	99.1	–
CCNC(=O)Nc1cc(-c2ccc(C(=O)O)cc2)ccn1 [Example 144, 4-(2-{[(ethylamino)carbonyl]amino}pyridin-4-yl)benzoic acid]	38.6	–
CCNC(=O)Nc1cc(-c2nc(C(C)(C)C)cs2)c(-c2cncc(C(=O)O)c2)cn1 [Example 145, 4′-(4-tert-butyl-1,3-thiazol-2-yl)-6′-{[(ethylamino)carbonyl]amino}-3,3′-bipyridine-5-carboxylic acid]	101	–
CCNC(=O)Nc1ccc(-c2cccc(CC(=O)O)c2)cn1 [Example 146, [3-(6-{[(ethylamino)carbonyl]amino}pyridin-3-yl)phenyl]acetic acid]	64.3	–
CCNC(=O)Nc1ccc(-c2nc(-c3ncnn3C)c(C(=O)O)s2)cn1 [Example 147, 2-(6-{[(ethylamino)carbonyl]amino}pyridin-3-yl)-4-(1-methyl-1H-1,2,4-triazol-5-yl)-1,3-thiazole-5-carboxylic acid]	–	94.65
CCNC(=O)Nc1ccc(-c2ccc3nc(C)c(C(=O)O)n3c2)cn1 [Example 148, 6-(6-{[(ethylamino)carbonyl]amino}pyridin-3-yl)-2-methylimidazo[1,2-a]pyridine-3-carboxylic acid]	94.2	–
CCNC(=O)Nc1ccc(-c2nc(C(=O)N(C)C)c(C(=O)O)s2)cn1 [Example 149, 4-[(dimethylamino)carbonyl]-2-(6-{[(ethylamino)carbonyl]amino}pyridin-3-yl)-1,3-thiazole-5-carboxylic acid]	97.5	–
CCCCNC(=O)c1nc(-c2cnc(NC(=O)NCC)cc2-c2nc(CC)cs2)sc1C(=O)O [Example 150, 4-[(butylamino)carbonyl]-2-[6-{[(ethylamino)carbonyl]amino}-4-(4-ethyl-1,3-thiazol-2-yl)pyridin-3-yl]-1,3-thiazole-5-carboxylic acid]	100	–
CCNC(=O)Nc1cccc(-c2cccc(C(N)=O)c2)n1 [Example 151, 3-(6-{[(ethylamino)carbonyl]amino}pyridin-2-yl)benzamide]	97.7	–
CCNC(=O)Nc1ccc(-c2nc(C(N)=O)c(C(N)=O)s2)cn1 [Example 152, 2-(6-{[(ethylamino)carbonyl]amino}pyridin-3-yl)-1,3-thiazole-4,5-dicarboxamide]	69.4	–
CCNC(=O)Nc1ccc(-c2nc(C(C)=O)c(C(=O)N(C)C)s2)cn1 [Example 153, 4-acetyl-2-(6-{[(ethylamino)carbonyl]amino}pyridin-3-yl)-N,N-dimethyl-1,3-thiazole-5-carboxamide]	71.4	–
CCNC(=O)Nc1ccc(-c2nc(C(C)=O)c(C(N)=O)s2)cn1 [Example 154, 4-acetyl-2-(6-{[(ethylamino)carbonyl]amino}pyridin-3-yl)-1,3-thiazole-5-carboxamide]	99.8	–
CCNC(=O)Nc1ccc(-c2ccc3nc(C)c(C(N)=O)n3c2)cn1 [Example 155, 6-(6-{[(ethylamino)carbonyl]amino}pyridin-3-yl)-2-methylimidazo[1,2-a]pyridine-3-carboxamide]	82.3	–
CCNC(=O)Nc1cccc(-c2cccc(C(=O)N(C)C)c2)n1 [Example 156, 3-(6-{[(ethylamino)carbonyl]amino}pyridin-2-yl)-N,N-dimethylbenzamide]	43	–
CCNC(=O)Nc1ccc(-c2nc(-c3ncnn3C)c(C(N)=O)s2)cn1 [Example 157, 2-(6-{[(ethylamino)carbonyl]amino}pyridin-3-yl)-4-(1-methyl-1H-1,2,4-triazol-5-yl)-1,3-thiazole-5-carboxamide]	101	–
